Test results from patent publication US20160185774A1, “Anti-Infective Compounds” (priority 2013, published 2016).
In brackets after ≈: the same amount, converted by molar mass.

tested on: M. tuberculosis; assay: microbe, parasite or virus in culture; assay type: cell-based; conditions: Mycobacterium tuberculosis, 120 h; read-out: QUM (MIC80)

`CCc1nc2ccc(C)cn2c1C(=O)NCc1ccc(N2CCN(c3ccc(OC)cc3)CC2)cc1` [Compound 56] and `CCc1nc2ccc(OC)cn2c1C(=O)NCc1ccc(N2CCN(c3ccc(C)cc3)CC2)cc1` [Compound 100] cannot be ordered by MIC80: < 1 µM for the first, < 1 µM for the second.

`CCc1nc2cc(OC)ccn2c1C(=O)NCc1ccc(N2CCN(c3ccc(C(F)(F)F)cc3)CC2)cc1` [Compound 57] and `CCc1nc2cc(C(F)(F)F)ccn2c1C(=O)NCc1ccc(N2CCN(c3ccc(OC)cc3)CC2)cc1` [Compound 96] cannot be ordered by MIC80: < 1 µM for the first, < 1 µM for the second.

`CCc1nc2c(OC)cccn2c1C(=O)NCc1ccc(N2CCN(c3ccc(OC)cc3)CC2)cc1` [Compound 58] and `CCc1nc2c(OC)cccn2c1C(=O)NCc1ccc(N2CCN(c3ccc(C)cc3)CC2)cc1` [Compound 104] fall in the same range of MIC80: 1 to 20 µM (≈ 0.5 to 9.99 µg/mL) for the first, 1 to 20 µM (≈ 0.484 to 9.67 µg/mL) for the second.

`CCc1nc2cc(C)ccn2c1C(=O)NCc1ccc(N2CCN(c3ccc(Cl)cc3)CC2)cc1` [Compound 59] and `CCc1nc2cc(F)ccn2c1C(=O)NCc1ccc(N2CCN(c3ccc(Cl)cc3)CC2)cc1` [Compound 90] cannot be ordered by MIC80: < 1 µM for the first, < 1 µM for the second.

`CCc1nc2ccc(C)cn2c1C(=O)NCc1ccc(N2CCN(c3ccc(C(F)(F)F)cc3)CC2)cc1` [Compound 60] and `CCc1nc2ccc(C(F)(F)F)cn2c1C(=O)NCc1ccc(N2CCN(c3ccc(C)cc3)CC2)cc1` [Compound 102] cannot be ordered by MIC80: < 1 µM for the first, < 1 µM for the second.

`CCc1nc2cc(C)ccn2c1C(=O)NCc1ccc(N2CCN(c3ccc(C(F)(F)F)cc3)CC2)cc1` [Compound 61] and `CCc1nc2cc(C(F)(F)F)ccn2c1C(=O)NCc1ccc(N2CCN(c3ccc(C)cc3)CC2)cc1` [Compound 106] cannot be ordered by MIC80: < 1 µM for the first, < 1 µM for the second.

`CCc1nc2ccccn2c1C(=O)NCc1ccc(N2CCN(c3ccccc3)CC2)cc1` [Compound 62] and `CCc1nc2cc(C)ccn2c1C(=O)NCc1ccc(N2CCN(c3ccccc3)CC2)cc1` [Compound 67] cannot be ordered by MIC80: < 1 µM for the first, < 1 µM for the second.

First: CCc1nc2c(F)cccn2c1C(=O)NCc1ccc(N2CCN(c3ccc(Cl)cc3)CC2)cc1 [Compound 63]
Second: CCc1nc2c(OC)cccn2c1C(=O)NCc1ccc(N2CCN(c3ccc(Cl)cc3)CC2)cc1 [Compound 103]
The MIC80 of the first is lower: < 1 µM for the first, 1 to 20 µM (≈ 0.504 to 10.1 µg/mL) for the second.

`CCc1nc2c(Cl)cccn2c1C(=O)NCc1ccc(N2CCN(c3ccccc3)CC2)cc1` [Compound 64] and `CCc1nc2c(F)cccn2c1C(=O)NCc1ccc(N2CCN(c3ccccc3)CC2)cc1` [Compound 70] cannot be ordered by MIC80: < 1 µM for the first, < 1 µM for the second.

`CCc1nc2ccc(C)cn2c1C(=O)NCc1ccc(N2CCN(c3ccc(C)cc3)CC2)cc1` [Compound 65] and `CCc1nc2ccc(C)cn2c1C(=O)NCc1ccc(N2CCN(c3ccc(Cl)cc3)CC2)cc1` [Compound 66] cannot be ordered by MIC80: < 1 µM for the first, < 1 µM for the second.

`CCc1nc2ccc(Cl)cn2c1C(=O)NCc1ccc(N2CCN(c3ccccc3)CC2)cc1` [Compound 68] and `CCc1nc2ccc(F)cn2c1C(=O)NCc1ccc(N2CCN(c3ccccc3)CC2)cc1` [Compound 71] cannot be ordered by MIC80: < 1 µM for the first, < 1 µM for the second.

`CCc1nc2cc(F)ccn2c1C(=O)NCc1ccc(N2CCN(c3ccccc3)CC2)cc1` [Compound 69] and `CCc1nc2cc(C(F)(F)F)ccn2c1C(=O)NCc1ccc(N2CCN(c3ccccc3)CC2)cc1` [Compound 81] cannot be ordered by MIC80: < 1 µM for the first, < 1 µM for the second.

`CCc1nc2ccc(Br)cn2c1C(=O)NCc1ccc(N2CCC(c3ccc(F)cc3)CC2)cc1` [Compound 72] and `CCc1nc2ccc(Br)cn2c1C(=O)NCc1ccc(N2CCC(c3ccc(C)cc3)CC2)cc1` [Compound 79] cannot be ordered by MIC80: < 1 µM for the first, < 1 µM for the second.

First: CCc1nc2c(C)cccn2c1C(=O)NCc1ccc(N2CCC(c3ccccc3)CC2)cc1 [Compound 73]
Second: CCc1nc2c(Br)cccn2c1C(=O)NCc1ccc(N2CCC(c3ccc(OC)cc3)CC2)cc1 [Compound 89]
The MIC80 of the first is lower: < 1 µM for the first, 1 to 20 µM (≈ 0.547 to 10.9 µg/mL) for the second.

`CCc1nc2cc(F)ccn2c1C(=O)NCc1ccc(N2CCN(c3ccc(OC)cc3)CC2)cc1` [Compound 74] and `CCc1nc2cc(F)ccn2c1C(=O)NCc1ccc(N2CCN(c3ccc(C)cc3)CC2)cc1` [Compound 93] cannot be ordered by MIC80: < 1 µM for the first, < 1 µM for the second.

`CCc1nc2ccc(F)cn2c1C(=O)NCc1ccc(N2CCN(c3ccc(C)cc3)CC2)cc1` [Compound 75] and `CCc1nc2ccc(F)cn2c1C(=O)NCc1ccc(N2CCN(c3ccc(Cl)cc3)CC2)cc1` [Compound 77] cannot be ordered by MIC80: < 1 µM for the first, < 1 µM for the second.

`CCc1nc2ccc(F)cn2c1C(=O)NCc1ccc(N2CCN(c3ccc(C(F)(F)F)cc3)CC2)cc1` [Compound 76] and `CCc1nc2ccc(C(F)(F)F)cn2c1C(=O)NCc1ccc(N2CCN(c3ccc(F)cc3)CC2)cc1` [Compound 87] cannot be ordered by MIC80: < 1 µM for the first, < 1 µM for the second.

`CCc1nc2c(C(F)(F)F)cccn2c1C(=O)NCc1ccc(N2CCC(c3ccc(F)cc3)CC2)cc1` [Compound 78] and `CCc1nc2c(C(F)(F)F)cccn2c1C(=O)NCc1ccc(N2CCC(c3ccc(C(F)(F)F)cc3)CC2)cc1` [Compound 88] fall in the same range of MIC80: 1 to 20 µM (≈ 0.525 to 10.5 µg/mL) for the first, 1 to 20 µM (≈ 0.575 to 11.5 µg/mL) for the second.

`CCc1nc2ccc(C(F)(F)F)cn2c1C(=O)NCc1ccc(N2CCN(c3ccccc3)CC2)cc1` [Compound 80] and `CCc1nc2ccc(C(F)(F)F)cn2c1C(=O)NCc1ccc(N2CCN(c3ccc(OC)cc3)CC2)cc1` [Compound 109] cannot be ordered by MIC80: < 1 µM for the first, < 1 µM for the second.

`CCc1nc2cc(F)ccn2c1C(=O)NCc1ccc(N2CCN(c3ccc(F)cc3)CC2)cc1` [Compound 82] and `CCc1nc2cc(C(F)(F)F)ccn2c1C(=O)NCc1ccc(N2CCN(c3ccc(F)cc3)CC2)cc1` [Compound 86] cannot be ordered by MIC80: < 1 µM for the first, < 1 µM for the second.

`CCc1nc2c(C)cccn2c1C(=O)NCc1ccc(N2CCN(c3ccc(F)cc3)CC2)cc1` [Compound 83] and `CCc1nc2c(Cl)cccn2c1C(=O)NCc1ccc(N2CCN(c3ccc(F)cc3)CC2)cc1` [Compound 85] cannot be ordered by MIC80: < 1 µM for the first, < 1 µM for the second.

`CCc1nc2c(C(F)(F)F)cccn2c1C(=O)NCc1ccc(N2CCN(c3ccccc3)CC2)cc1` [Compound 84] and `CCc1nc2c(C(F)(F)F)cccn2c1C(=O)NCc1ccc(N2CCN(c3ccc(C)cc3)CC2)cc1` [Compound 99] fall in the same range of MIC80: 1 to 20 µM (≈ 0.508 to 10.2 µg/mL) for the first, 1 to 20 µM (≈ 0.522 to 10.4 µg/mL) for the second.

`CCc1nc2cc(OC)ccn2c1C(=O)NCc1ccc(N2CCC(c3ccc(OC)cc3)CC2)cc1` [Compound 92] and `CCc1nc2cc(OC)ccn2c1C(=O)NCc1ccc(N2CCN(c3ccc(OC)cc3)CC2)cc1` [Compound 110] cannot be ordered by MIC80: < 1 µM for the first, < 1 µM for the second.

`CCc1nc2c(Br)cccn2c1C(=O)NCc1ccc(N2CCN(c3ccc(OC(F)(F)F)cc3)CC2)cc1` [Compound 94] and `CCc1nc2c(Br)cccn2c1C(=O)NCc1ccc(N2CCN(c3ccc(OC)cc3)CC2)cc1` [Compound 95] cannot be ordered by MIC80: < 1 µM for the first, < 1 µM for the second.

`CCc1nc2c(Br)cccn2c1C(=O)NCc1ccc(N2CCN(c3ccc(C)cc3)CC2)cc1` [Compound 97] and `CCc1nc2ccc(Br)cn2c1C(=O)NCc1ccc(N2CCN(c3ccc(C)cc3)CC2)cc1` [Compound 101] cannot be ordered by MIC80: < 1 µM for the first, < 1 µM for the second.

First: CCc1nc2c(Cl)cccn2c1C(=O)NCc1ccc(N2CCC(c3ccc(OC)cc3)CC2)cc1 [Compound 98]
Second: CCc1nc2c(C(F)(F)F)cccn2c1C(=O)NCc1ccc(N2CCN(c3ccc(OC)cc3)CC2)cc1 [Compound 105]
The MIC80 of the first is lower: < 1 µM for the first, 1 to 20 µM (≈ 0.538 to 10.8 µg/mL) for the second.

`CCc1nc2ccc(OC)cn2c1C(=O)NCc1ccc(N2CCN(c3ccc(OC(F)(F)F)cc3)CC2)cc1` [Compound 107] and `CCc1nc2ccc(OC)cn2c1C(=O)NCc1ccc(N2CCN(c3ccc(OC)cc3)CC2)cc1` [Compound 111] cannot be ordered by MIC80: < 1 µM for the first, < 1 µM for the second.

In the case of `CCc1nc2cc(OC)ccn2c1C(=O)NCc1ccc(N2CCN(c3ccc(C)cc3)CC2)cc1` [Compound 108], the MIC80 is reported as < 1 µM.
